Measurements as given in patent US20230312587A1, “PTERIDINONE COMPOUNDS AND USES THEREOF” (Vertex Pharmaceutical Incorporated, priority 2018, published 2023).
Read-outs that look alike come from different tables or passages of the source.

Assays:
Format in all cases: cell-based
[1] = test system: HepG2 parental; test: In vitro cell viability (CellTiter-Glo), HepG2 parental; settings: 96 hours, read-out: HepG2 viability
Method: HEK293 cells containing empty pCLPCx vector (HEK293 empty), HEK293 cells stably over-expression WFS1 (HEK293 WFS1), HepG2, and HepG2 cells where WFS1 was depleted via CRISPR/Cas9 (HepG2 WFS1 KO) cells were plated into 96-well black plates (Corning, product #3904) in 100 microliters of complete DMEM cell culture media [DMEM (Life Technologies, product #11960-051) media supplemented with 10% FBS (Hyclone, catalog #SH30071.03), antimycotic/antibiotic (Life Technologies, product #15240-062), and Glutamax (Life Technologies, product #35050-061)] at 1,000 (HEK293) or 5,000 (HepG2) cells per well. Cells were allowed to attach and grow overnight, after which compounds are added at various concentrations. Cell viability was assessed 96 hrs after compound addition with CellTiter-Glo reagent (Promega, catalog #G7570) according to manufacturer's protocol and measurement on a Pherastar luminescence plate reader (BMG Labtech).
To determine the effect of WFS1 depletion on compound mediated inhibition of cell viability, parental HepG2 cells and HepG2 cells where WFS1 was deleted by CRISPR/Cas9 were exposed to increasing concentrations of either Compound 136 or Compound 253 for 96 hours after which time viability was determined using Cell Titer Glo reagent (Promega). […] The IC50s for the viability of both the HepG2 parental and WFS1 knockout cells are summarized in Table 47: A<0.5 μM; 0.5 μM≤<2.0 μM; 2.0 μM≤C<10.0 μM; D≥[…].

[2] = test system: β-catenin-TCF-mediated reporter transcription activity in Colo 205 cells; test: Colo 205 reporter assay (TCF/LEF luciferase); settings: Colo 205 TCF/LEF luciferase reporter, five hours after addition of compound, read-out: TCF reporter Colo205 IC50
In short: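 Luciferase signal from a TCF/LEF-driven reporter, stably integrated in Colo 205 colon cancer cells, was measured 5 h after compound addition.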

[3] = test system: HepG2 XBP1(u)-Luc cells; test: HepG2 XBP1 reporter assay; settings: 6 h
In short: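 Reporter cells are HepG2 stably carrying unspliced XBP1 fused to firefly luciferase, which becomes in-frame after IRE1alpha-mediated splicing. SteadyGlo luminescence was normalized to DMSO-treated cells for IC50 calculation.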

IC50 ([2]; Homo sapiens, COLO 205, 5 h) [nM]	IC50 ([3]; Homo sapiens) [nM]	Compound	IC50 ([1]; Homo sapiens) [nM]	IC50 [1] [nM]	IC50 [2] [nM]	IC50 [3] [nM]
< 300	600 to 2000	Cc1nc(NCc2cnn(Cc3cncc(F)c3)c2)nc2c1NC(=O)[C@H](C(C)C)N2C [Compound 415, (7S)-2-(((1-((5-fluoropyridin-3-yl)methyl)-1H-pyrazol-4-yl)methyl)amino)-7-isopropyl-4,8-dimethyl-7,8-dihydropteridin-6(5H)-one]	500 to 2000			
< 300	< 600	Cc1cc(F)ncc1Cn1cc(CNc2nc(C)c3c(n2)N(C)[C@@H](C(C)C)C(=O)N3)cn1 [Compound 423, (7S)-2-(((1-((6-fluoro-4-methylpyridin-3-yl)methyl)-1H-pyrazol-4-yl)methyl)amino)-7-isopropyl-4,8-dimethyl-7,8-dihydropteridin-6(5H)-one]	< 500			
< 300	< 600	Cc1nc(NCc2cnn(Cc3cnc(Cl)c(F)c3)c2)nc2c1NC(=O)[C@H](C(C)C)N2C [Compound 424, (7S)-2-(((1-((6-chloro-5-fluoropyridin-3-yl)methyl)-1H-pyrazol-4-yl)methyl)amino)-7-isopropyl-4,8-dimethyl-7,8-dihydropteridin-6(5H)-one]	< 500			
< 300	600 to 2000	Cc1ncc(Cn2cc(CNc3nc(C)c4c(n3)N(C)[C@@H](C(C)C)C(=O)N4)cn2)cc1F [Compound 425, (7S)-2-(((1-((5-fluoro-6-methylpyridin-3-yl)methyl)-1H-pyrazol-4-yl)methyl)amino)-7-isopropyl-4,8-dimethyl-7,8-dihydropteridin-6(5H)-one]	500 to 2000			

Second part, the compound before the results:

Compound	IC50 ([2]; Homo sapiens, COLO 205, 5 h) [nM]	IC50 ([3]; Homo sapiens) [nM]	IC50 ([1]; Homo sapiens) [nM]	IC50 [1] [nM]	IC50 [2] [nM]	IC50 [3] [nM]
Cc1nc(NCc2cnn(Cc3ccc(C(F)(F)F)nc3C(C)(C)O)c2)nc2c1NC(=O)[C@H](C)N2C [Compound 416, (7S)-2-(((1-((2-(2-hydroxypropan-2-yl)-6-(trifluoromethyl)pyridin-3-yl)methyl)-1H-pyrazol-4-yl)methyl)amino)-4,7,8-trimethyl-7,8-dihydropteridin-6(5H)-one]	< 300	< 600	< 500			
Cc1nc(NCc2cnn(Cc3ccc(C(F)(F)F)nc3Cl)c2)nc2c1NC(=O)[C@H](C)N2C [Compound 418, (7S)-2-(((1-((2-chloro-6-(trifluoromethyl)pyridin-3-yl)methyl)-1H-pyrazol-4-yl)methyl)amino)-4,7,8-trimethyl-7,8-dihydropteridin-6(5H)-one]	< 300	< 600	< 500			
Cc1nc(NCc2cnn(Cc3ccc(C(F)(F)F)nc3C(C)O)c2)nc2c1NC(=O)[C@H](C)N2C (stereo partly drawn) [Compound 419, (7S)-2-(((1-((2-((S)-1-hydroxyethyl)-6-(trifluoromethyl)pyridin-3-yl)methyl)-1H-pyrazol-4-yl)methyl)amino)-4,7,8-trimethyl-7,8-dihydropteridin-6(5H)-one]	< 300	2000 to 10000	2000 to 10000			
Cc1nc(NCc2cnn(Cc3ccc(F)nc3)c2)nc2c1NC(=O)[C@H](C1CC1)N2C [Compound 421, (7S)-7-cyclopropyl-2-(((1-((6-fluoropyridin-3-yl)methyl)-1H-pyrazol-4-yl)methyl)amino)-4,8-dimethyl-7,8-dihydropteridin-6(511)-one]				500 to 2000	< 300	< 600
CC[C@H]1C(=O)Nc2cnc(NCc3cnn(Cc4ccc(C(F)(F)F)nc4)c3)nc2N1C [Compound 427, (7S)-7-ethyl-8-methyl-2-(((1-((6-(trifluoromethyl)pyridin-3-yl)methyl)-1H-pyrazol-4-yl)methyl)amino)-7,8-dihydropteridin-6(5H)-one]	300 to 1000	600 to 2000	≥ 10000			
Cc1nc(NCc2cn(Cc3ccc(C(F)(F)F)nc3)cn2)nc2c1NC(=O)[C@H](C)N2C [Compound 428, (S)-4,7,8-trimethyl-2-(((1-((6-(trifluoromethyl)pyridin-3-yl)methyl)-1H-imidazol-4-yl)methyl)amino)-7,8-dihydropteridin-6(5H)-one]	≥ 5000	≥ 10000	≥ 10000			
(7S)-2-(((1-((6-fluoro-2-isopropylpyridin-3-yl)methyl)-1H-pyrazol-4-yl)methyl)(methyl)amino)-7-isopropyl-4,8-dimethyl-7,8-dihydropteridin-6(5H)-one [Compound 430]				< 500	< 300	< 600
